Measured values published in patent publication US7648985B2, “Oxabispidine compounds and their use in the treatment of cardiac arrhythmias” (AstraZeneca AB, priority 2004, dated 2010).

Biological target: T1, HERG channel (Homo sapiens, UniProt Q12809)
T1 construct: expressed in transfected cells
Assay: Test B: R^+-Efflux Assay for Detection of HERG Channel Blockers
Type: cell-based
Conditions: depolarisation-induced Rb+ efflux from Chinese hamster ovary cells stably expressing the HERG-channel; read-out: pIC50 for HERG channel blockade (converted)
Procedure: The IC50 value for HERG channel blockade was determined using a high throughput functional assay based on depolarisation-induced R^+-efflux from Chinese hamster ovary cells stably expressing the HERG-channel.
Cells were grown in Ham F12 (Life Technologies 31765-027) supplemented with 10% FBS and 0.6 mg/mL hygromycin B and were routinely passaged twice-weekly. For experimental studies, cells were plated at a density of 15,000 cells/well in Falcon, 384-well tissue culture-treated black-walled clear-bottomed plates and were thereafter incubated overnight at 37° C. in a cell culture incubator.
Following incubating overnight, cell plates were washed and a Rb^+-Load buffer (a physiological buffer containing Rb^+) was added. Cell plates were then incubated for 3 hours and were thereafter washed. Following this wash, the test compounds were added. The cell plates were then incubated for another 10 minutes and, following this incubation period, external K^+ concentration was increased in order to depolarize the cells and activate HERG channels. After a ten minute exposure period to the increased K^+ concentration, supernatants were transferred to new microplates for subsequent determination of Rb^+ content, using Atomic Absorption Spectrometry analysis. […]
Compound activity was expressed as: […]

T1 sequence (Q12809 whole entry): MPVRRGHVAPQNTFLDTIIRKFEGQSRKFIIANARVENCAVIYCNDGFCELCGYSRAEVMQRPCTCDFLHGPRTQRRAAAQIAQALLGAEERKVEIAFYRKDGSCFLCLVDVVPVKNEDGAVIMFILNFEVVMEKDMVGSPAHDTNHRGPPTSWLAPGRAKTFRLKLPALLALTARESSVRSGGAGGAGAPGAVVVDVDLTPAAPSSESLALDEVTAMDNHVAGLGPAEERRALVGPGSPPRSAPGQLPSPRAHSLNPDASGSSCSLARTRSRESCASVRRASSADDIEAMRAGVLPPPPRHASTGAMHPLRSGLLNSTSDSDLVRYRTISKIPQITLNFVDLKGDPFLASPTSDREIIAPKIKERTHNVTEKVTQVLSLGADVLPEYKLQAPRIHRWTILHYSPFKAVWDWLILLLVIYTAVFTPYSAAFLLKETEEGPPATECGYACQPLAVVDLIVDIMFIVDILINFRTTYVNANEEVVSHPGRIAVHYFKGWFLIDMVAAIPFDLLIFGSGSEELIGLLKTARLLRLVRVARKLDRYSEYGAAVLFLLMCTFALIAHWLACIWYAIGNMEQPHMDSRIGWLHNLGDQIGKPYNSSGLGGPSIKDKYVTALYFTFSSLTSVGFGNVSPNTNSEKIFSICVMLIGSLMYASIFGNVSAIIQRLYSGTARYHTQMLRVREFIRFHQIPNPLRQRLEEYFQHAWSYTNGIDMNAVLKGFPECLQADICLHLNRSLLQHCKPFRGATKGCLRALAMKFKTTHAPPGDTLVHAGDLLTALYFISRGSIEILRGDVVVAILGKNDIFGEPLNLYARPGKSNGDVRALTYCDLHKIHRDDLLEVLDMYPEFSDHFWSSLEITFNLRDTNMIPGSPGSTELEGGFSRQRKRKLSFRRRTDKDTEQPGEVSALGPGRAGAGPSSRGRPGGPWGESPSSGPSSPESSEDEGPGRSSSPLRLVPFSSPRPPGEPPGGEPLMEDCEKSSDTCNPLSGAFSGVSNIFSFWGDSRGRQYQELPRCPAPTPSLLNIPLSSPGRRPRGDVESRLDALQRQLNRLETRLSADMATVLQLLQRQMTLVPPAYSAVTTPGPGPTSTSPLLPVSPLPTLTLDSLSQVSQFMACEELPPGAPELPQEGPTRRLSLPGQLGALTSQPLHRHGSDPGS

Cc1noc(C)c1S(=O)(=O)NCCN1CC2CN(CCOc3ccc(C#N)cc3)CC(C1)O2 [Example 9, N-(2-{7-[2-(4-cyanophenoxy)ethyl]-9-oxa-3,7-diazabicyclo[3.3.1]non-3-yl}ethyl)-3,5-dimethylisoxazole-4-sulfonamide]
IC50: 3.24 µM
